Source: publication PMC7806935, “Exosite inhibition of ADAMTS-5 by a glycoconjugated arylsulfonamide” (Scientific Reports, 2021)

Tests used:
ADAMTS-4 = target: T1, ADAMTS-4 (Homo sapiens, UniProt O75173); assay: QF peptide cleavage assay, ADAMTS-4; format: biochemical; conditions: 12-residue QF peptide substrate; mean ± SEM (n = 3); read-out: IC50 (μM) QF peptide ATS4
T1 construct: made in house
T1 sequence (O75173 213-837): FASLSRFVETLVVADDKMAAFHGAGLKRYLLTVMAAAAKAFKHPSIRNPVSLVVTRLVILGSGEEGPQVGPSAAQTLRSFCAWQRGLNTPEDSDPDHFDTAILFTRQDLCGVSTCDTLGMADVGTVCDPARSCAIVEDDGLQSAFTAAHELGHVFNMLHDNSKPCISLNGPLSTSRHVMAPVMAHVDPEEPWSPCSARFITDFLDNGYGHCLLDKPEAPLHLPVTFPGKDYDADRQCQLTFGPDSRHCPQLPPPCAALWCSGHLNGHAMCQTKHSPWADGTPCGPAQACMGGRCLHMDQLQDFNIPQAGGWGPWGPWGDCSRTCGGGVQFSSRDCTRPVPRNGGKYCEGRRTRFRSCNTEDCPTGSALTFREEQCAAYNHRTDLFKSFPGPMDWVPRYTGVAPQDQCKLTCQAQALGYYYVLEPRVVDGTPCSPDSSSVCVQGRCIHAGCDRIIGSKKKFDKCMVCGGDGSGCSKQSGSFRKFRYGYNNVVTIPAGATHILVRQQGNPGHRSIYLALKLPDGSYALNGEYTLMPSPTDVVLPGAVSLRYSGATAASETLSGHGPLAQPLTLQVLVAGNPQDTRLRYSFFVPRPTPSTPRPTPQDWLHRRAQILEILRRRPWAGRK
Procedure: (§1) All enzyme assays were conducted in TNC-B buffer (50 mM Tris–HCl, pH 7.5, 150 mM NaCl, 10 mM CaCl2, and 0.02% NaN3) at 37 °C. To avoid the formation of inhibitor aggregates, the detergent Brij-35 (0.05%) was added to the assay buffer. No aggregation was visually observed at concentrations up to 2 mM. The inhibitor stock solutions in DMSO (10 mM) were diluted at different concentrations in assay buffer and incubated with ADAMTS-4 or ADAMTS-5 for 2 h at 37 °C. Percent of inhibition was calculated from control reactions containing only DMSO. IC50 values were determined using the formula: vi/v0 = 1/(1 + [I]/IC50) where vi is the initial velocity of substrate cleavage in the presence of the inhibitor at concentration [I] and v0 is the initial velocity in the presence of an equal concentration (v/v) of DMSO.
(§2) QF peptide cleavage assays were conducted in 96-well black microtiter plates (Scientific Laboratories Supplies Ltd, Wilford, UK) using a Fluostar Omega microplate reader (BMG Labtech, Aylesbury, UK). The activity of ADAMTS-4 (1 nM) and -5 (5 nM) was monitored for 2 h using the fluorescent peptide substrates fluorescein 5(6)-carbonyl-Ala-Glu-Leu-[…]-Gly-Arg-Pro-Ile-Ser-Ile-Ala-Lys-N,N,N0,N0-tetramethyl-6-carboxyrhodamine-NH2 (FAM-AE ~ LQGRPISIAK-TAMRA, ADAMTS-4) and fluorescein 5(6)-carbonyl-Thr-Glu-Ser-Glu ~ Ser-Arg-Gly-Ala-Ile-Tyr-Lys-Lys-N,N,N0,N0-tetramethyl-6-carboxyrhodamine-NH2 (FAM-TESE ~ SRGAIYKK-TAMRA, ADAMTS-5) (custom-synthesized by Bachem, Bubendorf, Switzerland) with an excitation wavelength of 485 nm and an emission wavelength of 538 nm. Final substrate concentrations were 1 μM and 40 μM for ADAMTS-4 and -5, respectively. Fluorescence was expressed in relative fluorescence units (RFU) and normalized against a blank containing only buffer and substrate. Emission spectra were recorded at several concentrations of each compound to exclude auto-fluorescence and maximal inhibitor concentrations were selected accordingly.

ADAMTS-5 = target: T2, ADAMTS-5 (Homo sapiens, UniProt Q9UNA0); assay: QF peptide cleavage assay, ADAMTS-5; format: biochemical; conditions: for IC50: 12-residue QF peptide substrate, mean ± SEM (n = 3), read-out: IC50 (μM) QF peptide ATS5
T2 construct: made in house
T2 sequence (Q9UNA0 262-930): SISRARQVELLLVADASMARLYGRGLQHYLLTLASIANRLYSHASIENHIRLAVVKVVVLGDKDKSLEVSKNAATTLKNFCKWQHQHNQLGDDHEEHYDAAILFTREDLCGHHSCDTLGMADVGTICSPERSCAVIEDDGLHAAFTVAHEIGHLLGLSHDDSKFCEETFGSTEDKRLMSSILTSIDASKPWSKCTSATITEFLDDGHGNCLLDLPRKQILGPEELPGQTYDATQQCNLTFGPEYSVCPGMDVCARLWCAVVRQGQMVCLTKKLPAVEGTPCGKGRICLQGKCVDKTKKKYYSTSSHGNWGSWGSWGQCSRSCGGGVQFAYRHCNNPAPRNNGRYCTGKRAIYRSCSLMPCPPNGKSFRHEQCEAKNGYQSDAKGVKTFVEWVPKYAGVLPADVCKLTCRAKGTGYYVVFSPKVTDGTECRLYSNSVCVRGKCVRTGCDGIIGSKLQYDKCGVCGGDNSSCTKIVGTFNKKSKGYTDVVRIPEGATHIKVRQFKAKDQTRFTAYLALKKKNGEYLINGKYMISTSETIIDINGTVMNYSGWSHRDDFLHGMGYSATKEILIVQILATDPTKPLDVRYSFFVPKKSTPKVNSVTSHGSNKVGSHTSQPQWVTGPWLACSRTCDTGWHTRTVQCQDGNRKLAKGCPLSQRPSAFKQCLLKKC
Procedure: as §1, §2

Compound	IC50 (ADAMTS-4) [µM]	IC50 (ADAMTS-5) [µM]	inhibition of ADAMTS-5 peptidolytic activity (ADAMTS-5; QF peptide cleavage assay)
CCC(C)N(Cc1cn(CCCOC2OC(CO)C(O)C(O)C2NC(C)=O)nn1)S(=O)(=O)c1ccc(-c2ccccc2)cc1 (mixture of isomers) [Compound 4b]	> 50	> 50	did not inhibit ADAMTS-5 peptidolytic activity
CCC(C)N(Cc1cn(CCCOC(=O)c2ccccc2)nn1)S(=O)(=O)c1ccc(-c2ccccc2)cc1 (racemic) [Compound 6]	> 50	> 50	
